For assay [1], the system named is MyD88-mediated NF-kB driven SEAP reporter response. It is filed as cell-based, human.
The subject of assay [2] is pro-inflammatory cytokine production of human PBMCs. It is filed as cell-based.
Assay [3] concerns lethal endotoxic shock (LPS) in mice. To be noted: mouse, in vivo.
Assay [4] has as its system VEEV (TC-83). On the set-up: species or system C3H/HeN mice. To be noted: mouse, in vivo, ip.
Assay [5] relates to IRF3 phosphorylation. It is filed as cell-based, human.
Assay [6] has as its system SEB-induced toxic shock in BALB/c mice. The settings on record: mouse, in vivo.
In assay [7] the test system is U937 cells. It is filed as cell-based, human.
Assay [8] has as its system Rift valley fever virus. In kind it is cell-based. The settings on record: read-out: IC50 reduction of virus replication.
For assay [9], the system named is HEK293-TLR3 cells. It is filed as cell-based, human.
In assay [10] the test system is Ebola virus. It is filed as cell-based. The settings on record: read-out: IC50 reduction of virus replication.
Assay [11] concerns human glioblastoma astrocytoma U87 cells. In kind it is cell-based.
The target in assay [12] is T1, MyD88 and IRF3 interaction (Homo sapiens, UniProt Q99836).
T1 construct: no number printed for the IRF3-HA plasmid; host or cells: HEK293-TLR3 (InvivoGen)
T1 sequence (Q99836 whole entry): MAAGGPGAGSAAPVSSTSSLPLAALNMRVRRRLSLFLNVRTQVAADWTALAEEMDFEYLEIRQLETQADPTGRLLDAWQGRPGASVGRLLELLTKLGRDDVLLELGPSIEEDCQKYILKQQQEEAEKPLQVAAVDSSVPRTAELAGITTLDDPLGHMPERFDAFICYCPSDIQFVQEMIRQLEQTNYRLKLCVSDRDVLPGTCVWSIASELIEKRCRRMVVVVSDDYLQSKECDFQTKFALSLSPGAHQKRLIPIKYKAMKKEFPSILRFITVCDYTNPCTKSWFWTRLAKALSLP
In kind it is cell-based.

The test system of assay [13] is dengue virus. It is filed as cell-based. To be noted: read-out: IC50 reduction of virus replication.
Assay [14] concerns Lassa virus. It is filed as cell-based. To be noted: read-out: IC50 reduction of virus replication.
The subject of assay [15] is pro-inflammatory cytokine production in spleen cells of BALB/c and C57BL/6 mice. In kind it is cell-based, mouse.

“And” between values parts separate entries of the source, which are not always exact repeats. Equal entries are not always repeated. Where two headings read alike, the source gives them in different places.

As to `CC(C)[C@H](NC(=O)CCc1ccccc1)C(=O)N1CCCC1` [Compound 1, Hydrocinnamoyl-L-valyl-pyrrolidine, reference compound], the IC50 is 180 µM in [1]; 41 µM and 40 µM in assay [2] (read-out: IC50 IFN-γ); 24 µM in assay [2] (read-out: IC50 IL-1β); 14 µM in assay [2] (read-out: IC50 IL-6); 19 µM in assay [2] (read-out: IC50 TNF-α).
With `CC(C)[C@@H](C(=O)N1CCCC1)N(CCCc1ccccc1)C(=O)[C@H]1CC[C@H](C(=O)N(CCCc2ccccc2)[C@H](C(=O)N2CCCC2)C(C)C)CC1` [Compound 4210], in assay [3], the effect on death entry is “delayed death” and the “mice protected from lethal endotoxic shock” value is on record as 33%. Further, in assay [4], the clinical disease score entry was “less clinical diseases score”, the survival result was “increased survival” and the weight loss result is recorded as “significantly prevented weight loss”. Besides, the “phosphorylation of IRF-3” value in assay [5] is reported as “increase in phosphorylation was observed in a dose dependent manner”. In assay [6], the “amount giving therapeutic efficacy from toxic shock-induced death with lethal SEB challenge” value amounted to 1 mg; the “effect on death, post-exposure treatment” value is given as “delayed in death”; the protection entry is listed as “completely protected”; the “protection, post-exposure treatment” value turned out to be 33%. For the same molecule, in assay [6], the survivability was 33% and 66%. In addition, in assay [7], the RANTES production entry was “increase in antiviral RANTES production”; the “expression of co-stimulatory molecules CD86 and CD80” value is “increased expression co-stimulatory molecules such as CD86 and CD80”; the “increase in IFN-β production” value is on record as “over 3 fold”. The IC50 in [8] turned out to be 22 µM. In assay [9], the RANTES production result is on record as “increased in RANTES production”. The “inhibition of cytokine production” value in [2] is reported as “inhibited cytokine production”. For the same molecule, in assay [2] (read-out: IC50 IFN-γ), the IC50 was 0.3 µM and 0.9 µM. Further, the IC50 in [2] (read-out: IC50 IL-1β) amounted to 0.73 µM. Also, in assay [2] (read-out: IC50 IL-6), the IC50 is 0.4 µM and 0.17 µM. In addition, the IC50 in assay [2] (read-out: IC50 TNF-α) is 0.27 µM. The IC50 in assay [2] (read-out: average inhibitory concentration (IC50) for most of the pro-inflammatory cytokines tested) is 1 to 50 µM. Moreover, the IC50 in assay [10] came to 42 µM. Besides, in [11], the IFN-β production result is “increased IFN-β production in a dose dependent manner” and the RANTES production entry is listed as “increase in RANTES production”. Further, the “MyD88-associated IRF3 band after pull down with Flag antibody” value in assay [12] was “dose dependent decrease of IRF3 band”. In assay [13], the IC50 was 31 µM. Also, in assay [14], the IC50 was 35 µM. Moreover, the “inhibition of pro-inflammatory cytokine production in spleen cell cultures” value in assay [15] is listed as “inhibited most of the pro-inflammatory cytokine production”.

Source of the values: patent US9833437B2 (priority 2014, dated 2017).
